Laboratory results: patent publication US12729192B2, “CDK9 inhibitor and use thereof” (PHARMABLOCK SCIENCES (NANJING), INC., priority 2020, dated 2026)

What was measured:
Format in all cases: biochemical
[1] = biological target: CDK9 (Homo sapiens, UniProt P50750); test: CDK9 kinase activity inhibition (ADP-Glo); settings: 10 μM ATP, 2 h at room temperature
Description: (§1) CDK9 kinase was manufactured by the company or commercially available. CDK1, CDK2 and CDK7 were purchased from Carna Biosciences, Inc. ADP-Glo™ kit was purchased from Promega Corporation. Dithiothreitol (DTT), Tween-20, dimethylsulfoxide (DMSO), bovine serum albumin (BSA) and Tris base were obtained from Sigma at the available highest level of purity.
(§2) General procedures for CDK inhibition determination: The determination was performed in a buffer consisting of 50 μM DTT, 0.1% BSA, 40 mM Tris-HCl pH=7.5 and 20 mM MgCl2. The compound dissolved in DMSO and CDK enzymes were diluted with the buffer. 1 μL of the compound solution in 5% DMSO and 2 μL of the CDK enzyme solution were added to a white low-volume 384-well microtiter plate and incubated for 20 min at room temperature. Ultra pure ATP and the substrate polypeptide (purchased from GenScript Biotech Corporation) were diluted together into the buffer and added to a mixed solution of the compound and the enzyme, 2 μL per well. They were incubated for 2 h at room temperature.
(§3) After the reaction was completed, 5 μL of ADP-Glo™ reagent was added to each well and incubated for 40 min at room temperature, and then 10 μL of test reagent was added to each well and incubated for 30 mi at room temperature. Chemical luminescence values were measured by using a Tecan (Männedorf, Switzerland) multifunctional plate reader Spark for plate reading. The IC50 value of the inhibitor was obtained by fitting the chemical luminescence intensity ratio in the S-shaped dosage reaction curve using Prism 7 (La Jolla, 15 CA) relative to the concentration of the inhibitor.

[2] = biological target: T1, CDK1 (Homo sapiens, UniProt P06493); test: CDK1 kinase activity inhibition (ADP-Glo); settings: 50 μM ATP, 2 h at room temperature
T1 construct: purchased Carna Biosciences, Inc
T1 sequence (P06493 whole entry): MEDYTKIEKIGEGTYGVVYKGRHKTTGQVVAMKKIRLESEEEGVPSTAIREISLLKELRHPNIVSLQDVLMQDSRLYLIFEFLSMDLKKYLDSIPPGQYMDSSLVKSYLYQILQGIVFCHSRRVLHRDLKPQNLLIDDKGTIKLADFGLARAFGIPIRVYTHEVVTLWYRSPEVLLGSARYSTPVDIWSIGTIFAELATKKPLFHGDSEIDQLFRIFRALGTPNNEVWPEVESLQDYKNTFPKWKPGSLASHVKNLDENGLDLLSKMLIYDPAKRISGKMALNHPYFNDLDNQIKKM
T1 sequence (P14635 whole entry partner): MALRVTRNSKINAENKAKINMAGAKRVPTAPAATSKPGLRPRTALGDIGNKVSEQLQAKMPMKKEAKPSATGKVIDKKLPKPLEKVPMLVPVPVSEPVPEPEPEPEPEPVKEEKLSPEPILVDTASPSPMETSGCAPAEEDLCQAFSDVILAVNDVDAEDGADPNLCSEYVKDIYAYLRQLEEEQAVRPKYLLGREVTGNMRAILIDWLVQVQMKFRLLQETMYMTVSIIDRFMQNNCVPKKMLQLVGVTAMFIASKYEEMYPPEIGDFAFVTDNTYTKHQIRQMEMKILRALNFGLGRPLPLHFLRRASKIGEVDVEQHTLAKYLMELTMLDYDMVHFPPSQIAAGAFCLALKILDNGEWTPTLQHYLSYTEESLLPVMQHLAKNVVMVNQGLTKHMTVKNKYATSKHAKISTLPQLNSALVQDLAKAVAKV
Description: as §1, §2, §3

[3] = biological target: T2, CDK2 (Homo sapiens, UniProt P24941); test: CDK2 kinase activity inhibition (ADP-Glo); settings: 10 μM ATP, 2 h at room temperature
T2 construct: purchased Carna Biosciences, Inc
Description: as §1, §2, §3

[4] = biological target: T3, CDK7 (Homo sapiens, UniProt P50613); test: CDK7 kinase activity inhibition (ADP-Glo); settings: 10 μM ATP, 2 h at room temperature
T3 construct: purchased Carna Biosciences, Inc
T3 sequence (P50613 whole entry): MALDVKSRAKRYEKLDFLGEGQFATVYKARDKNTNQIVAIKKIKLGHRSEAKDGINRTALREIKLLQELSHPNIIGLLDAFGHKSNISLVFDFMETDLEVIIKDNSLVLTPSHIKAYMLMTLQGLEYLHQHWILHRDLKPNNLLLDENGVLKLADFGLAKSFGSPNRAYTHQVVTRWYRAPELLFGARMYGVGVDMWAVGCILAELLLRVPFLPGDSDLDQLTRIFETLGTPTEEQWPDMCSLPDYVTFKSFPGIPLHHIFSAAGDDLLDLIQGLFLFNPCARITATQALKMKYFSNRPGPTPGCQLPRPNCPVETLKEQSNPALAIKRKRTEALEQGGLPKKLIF
T3 sequence (P51946 whole entry partner): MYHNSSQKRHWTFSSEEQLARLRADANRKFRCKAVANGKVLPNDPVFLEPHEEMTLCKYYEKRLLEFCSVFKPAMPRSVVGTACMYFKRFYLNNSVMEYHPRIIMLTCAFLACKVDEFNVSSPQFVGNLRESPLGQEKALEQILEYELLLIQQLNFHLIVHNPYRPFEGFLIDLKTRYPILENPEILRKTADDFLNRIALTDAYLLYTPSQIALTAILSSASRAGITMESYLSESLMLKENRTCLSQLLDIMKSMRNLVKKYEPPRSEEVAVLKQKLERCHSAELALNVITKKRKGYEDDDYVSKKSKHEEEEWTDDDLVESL
T3 sequence (P51948 whole entry partner): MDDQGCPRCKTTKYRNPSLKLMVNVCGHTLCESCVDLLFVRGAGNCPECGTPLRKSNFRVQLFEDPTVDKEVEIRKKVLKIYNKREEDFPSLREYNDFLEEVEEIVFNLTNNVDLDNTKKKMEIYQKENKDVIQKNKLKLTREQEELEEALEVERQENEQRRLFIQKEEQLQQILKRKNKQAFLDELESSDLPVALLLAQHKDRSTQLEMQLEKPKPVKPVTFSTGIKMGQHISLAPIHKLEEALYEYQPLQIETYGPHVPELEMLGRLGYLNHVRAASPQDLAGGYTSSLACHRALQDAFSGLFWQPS
Description: as §1, §2, §3

Chain of CDK9 (P50750 whole entry): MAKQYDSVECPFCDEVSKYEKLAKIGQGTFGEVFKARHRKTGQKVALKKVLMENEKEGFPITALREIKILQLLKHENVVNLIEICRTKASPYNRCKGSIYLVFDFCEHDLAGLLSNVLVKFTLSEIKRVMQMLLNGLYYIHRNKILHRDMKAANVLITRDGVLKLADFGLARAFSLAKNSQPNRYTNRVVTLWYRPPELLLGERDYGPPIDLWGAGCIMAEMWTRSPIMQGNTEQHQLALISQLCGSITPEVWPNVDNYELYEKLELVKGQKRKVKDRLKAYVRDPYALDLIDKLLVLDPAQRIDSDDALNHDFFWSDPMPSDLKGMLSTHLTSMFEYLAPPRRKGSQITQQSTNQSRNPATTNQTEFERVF
Chain of CDK9 (O60563 whole entry partner): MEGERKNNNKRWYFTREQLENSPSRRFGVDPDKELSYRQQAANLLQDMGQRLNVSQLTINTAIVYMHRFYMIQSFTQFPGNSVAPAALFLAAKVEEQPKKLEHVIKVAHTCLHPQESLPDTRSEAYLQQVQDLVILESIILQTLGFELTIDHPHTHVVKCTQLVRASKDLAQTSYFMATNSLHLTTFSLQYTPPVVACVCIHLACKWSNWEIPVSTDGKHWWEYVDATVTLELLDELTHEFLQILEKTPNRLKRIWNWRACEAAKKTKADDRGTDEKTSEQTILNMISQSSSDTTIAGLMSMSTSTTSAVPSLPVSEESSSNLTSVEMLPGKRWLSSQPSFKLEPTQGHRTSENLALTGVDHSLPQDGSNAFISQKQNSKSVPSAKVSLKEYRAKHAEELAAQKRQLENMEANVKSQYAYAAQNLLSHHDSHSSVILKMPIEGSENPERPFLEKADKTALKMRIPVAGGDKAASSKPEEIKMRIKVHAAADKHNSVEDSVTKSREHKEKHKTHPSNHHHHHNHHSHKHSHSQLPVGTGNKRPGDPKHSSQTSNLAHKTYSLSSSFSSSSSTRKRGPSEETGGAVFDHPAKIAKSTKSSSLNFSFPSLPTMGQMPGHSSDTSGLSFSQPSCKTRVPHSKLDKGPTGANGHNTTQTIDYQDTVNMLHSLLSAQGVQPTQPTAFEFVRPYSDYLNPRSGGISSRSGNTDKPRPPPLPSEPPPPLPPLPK

| IC50 [1] [nM] | IC50 [2] [nM] | IC50 [3] [nM] | IC50 [4] [nM] | SMILES |
| --- | --- | --- | --- | --- |
| 8.9 | 8730 | 2590 | 8380 | CC(=O)NC[C@H]1CCC(F)(F)CN1C(=O)c1nc(Nc2cc(C)ccn2)ccc1C [Compound 8, (R)—N-((5,5-difluoro-1-(3-methyl-6-((4-methylpyridin-2-yl)amino)pyridine-2-carbonyl)piperidin-2-yl)methyl)acetamide] |
| 7.8 | > 10000 | 8450 | > 10000 | COc1ccnc(Nc2ccc(C)c(C(=O)N3CC(F)(F)CC[C@@H]3CNC(C)=O)n2)c1 [Compound 9, (R)—N-((5,5-difluoro-1-(6-((4-methoxypyridin-2-yl)amino)-3-methylpyridine-2-carbonyl)piperidin-2-yl)methyl)acetamide] |
| 361 | > 10000 | > 10000 | 9860 | COc1cc(Nc2ccc(C)c(C(=O)N3CC(F)(F)CC[C@@H]3CNC(C)=O)n2)ncc1Cl [Compound 10, (R)—N-((1-(6-((5-chloro-4-methoxypyridin-2-yl)amino)-3-methylpyridine-2-carbonyl)-5,5-difluoropiperidin-2-yl)methyl)acetamide] |
| 19.2 | > 10000 | 2870 |  | CC(=O)NC[C@H]1CCC(F)(F)CN1C(=O)c1nc(Nc2cc(C(C)(C)C)ccn2)ccc1C [Compound 17, (R)—N-((1-(6-((4-(t-butyl)pyridin-2-yl)amino)-3-methylpyridine-2-carbonyl)-5,5-difluoropiperidin-2-yl)methyl)acetamide] |
| 35 | > 10000 | > 10000 |  | CC(=O)NC[C@H]1CCC(F)(F)CN1C(=O)c1nc(Nc2ccccn2)ccc1C [Compound 22, (R)—N-((5,5-difluoro-1-(3-methyl-6-(pyridin-2-ylamino)pyridine-2-carbonyl)piperidin-2-yl)methyl)acetamide] |
| 38 |  | 1420 | > 10000 | Cc1ccc(Nc2cc(OC(F)(F)F)ccn2)nc1C(=O)N1CC(F)(F)CC[C@@H]1CNC(=O)OC(C)(C)C [Compound 33, (R)-((5,5-difluoro-1-(3-methyl-6-((4-(trifluoromethoxy)pyridin-2-yl)amino)pyridine-2-carbonyl)piperidin-2-yl)methyl)t-butyl carbamate] |
| 231 |  | > 10000 | > 10000 | CCOc1ccnc(Nc2ccc(C)c(C(=O)N3CC(F)(F)CC[C@@H]3CNC(=O)OC(C)(C)C)n2)c1 [Compound 36, (R)-((1-(6-((4-ethoxypyridin-2-yl)amino)-3-methylpyridine-2-carbonyl)-5,5-difluoropiperidin-2-yl)methyl)t-butyl carbamate] |
| 245 |  | 9260 | > 10000 | Cc1ccc(Nc2cc(OC(F)(F)F)ccn2)nc1C(=O)N1CCCC[C@@H]1CNC(=O)OC(C)(C)C [Compound 41, (R)-((1-(3-methyl-6-((4-(trifluoromethoxy)pyridin-2-yl)amino)pyridine-2-carbonyl)piperidin-2-yl)methyl)t-butyl carbamate] |
| 86.9 | 4120 | 770 |  | Cc1ccc(Nc2cc(OC(F)(F)F)ccn2)nc1C(=O)N1CCCN2CCCC2C1 (stereo not drawn) [Compound 46, (Hexahydro-1H-pyrrolo[1,2-a][1,4]diazepin-2-2(3H)-yl)(3-methyl-6-((4-(trifluoromethoxy)pyridin-2-yl)amino)pyridin-2-yl)methanone] |
| 19.7 | > 10000 | > 10000 |  | CCOc1ccnc(Nc2ccc(C)c(C(=O)N3CC(F)(F)CC[C@@H]3CNC(=O)OC)n2)c1 [Compound 53, (R)-((1-(6-((4-ethoxypyridin-2-yl)amino)-3-methylpyridine-2-carbonyl)-5,5-difluoropiperidin-2-yl)methyl)methyl carbamate] |
| 265 | > 10000 | > 10000 |  | CC(=O)NC[C@H]1CCC(F)(F)CN1C(=O)c1cc(Nc2cc(OC(F)(F)F)ccn2)ccc1C [Compound 68, (R)—N-((5,5-difluoro-1-(2-methyl-5-((4-(trifluoromethoxy)pyridin-2-yl)amino)benzoyl)piperidin-2-yl)methyl)acetamide] |
